Our source for the Kd values is publication doi:10.1101/2025.04.10.648175v1 (biorxiv, 2025).

In assay [1] the target is AzoTag1. Nature of the assay: isothermal titration calorimetry. Format: binding. The note with it: 20 mM HEPES-NaOH, 150 mM NaCl, pH 7.5, 25 °C, 0.5% DMSO; one-site model.
Assay [2] deals with AzoTag16. Kind of assay: isothermal titration calorimetry. To be noted: 20 mM HEPES-NaOH, 150 mM NaCl, pH 7.5, 25 °C, 0.8% DMSO; one-site model. Format: binding. In general terms: ITC needs no label: the signal is the heat of the interaction.

`CCNC(=O)c1cc(F)c(/N=N\c2c(F)cc(C(=O)NCCOCCOCC(=O)NC)cc2F)c(F)c1` [compound 1, cis-Et-FAzo]: the affinity in assay [1], expressed as Kd, was 805 ± 22.6 nM.

`CNC(=O)COCCOCCNC(=O)c1cc(F)c(/N=N\c2c(F)cc(C(=O)NCCC(=O)O)cc2F)c(F)c1` [compound 2, cis-Ca-FAzo]: in assay [2], the dissociation constant (Kd) – broadly, the concentration at which binding is half-saturated – was 14.03 ± 0.02 nM.
